# According to article PMC11413854, “Reversible Control of Native GluN2B-Containing NMDA Receptors with Visible Light” (ACS Chemical Neuroscience, 2024):
# Entries after “also recorded” stand apart in the source; their conditions may differ. Where two headings read alike, the source gives them in different places.
# Target: T1, GluN1/GluN2B NMDA receptors (UniProt P35439+Q01097)
# T1 construct: expressed in transfected cells; host or cells: Xenopus laevis oocytes (nuclear cDNA injection)
# Assay: TEVC electrophysiology on Xenopus oocytes expressing wt GluN1/GluN2B NMDARs
# Assay type: cell-based, rat GluN1, mouse GluN2B
# Conditions: for remaining activity at 1 µM / remaining activity at 5 µM / remaining activity at 10 µM / remaining activity at 25 µM / remaining activity at 50 µM / remaining activity at 90 µM / remaining activity at 100 µM / remaining activity at 2 µM / remaining activity at 7.5 µM / remaining activity at 70 µM / remaining activity at 0.01 µM / remaining activity at 0.025 µM / remaining activity at 0.05 µM / remaining activity at 0.1 µM / remaining activity at 0.15 µM: GluN1/GluN2B wt, read-out: Relative current (IOpto/I0); for UV/dark IC50 ratio (365 nm PSS vs dark): preilluminated in solution; for shift in IC50 compared to parent compound: trans configuration (dark); for remaining activity at 0.01 µM: 0.010 µM; for remaining activity at 0.05 µM: 0.050 µM; for remaining activity at 0.1 µM: 0.100 µM; for remaining activity at 0.15 µM: 0.150 µM
# Excerpt: The activity of OptoNAM-3 was functionally monitored by electrophysiology on Xenopus oocytes (see Methods). To assess the light-dependent effect, we tested the activities of the dark PSS (mostly trans) and the UV PSS (mostly cis, see above) separately. For each concentration, we prepared a solution divided into two samples: one in which the compound was kept in the dark for the duration of the experiment (dark PSS state); and the other that was preilluminated with either 350 or 365 nm light (350 or 365 nm PSS) and then kept away from the light for the duration of the experiment in order to avoid photoisomerization of the compounds by ambient light (see Methods). […] We generated dose–response curves of OptoNAM-3 dark and UV PSS on wild-type (wt) GluN1/GluN2B NMDA receptors (Figure 3A) in the presence of saturating concentrations of agonists (100 μM glutamate and glycine).
# We used cDNA coding for rat GluN1–1a (named GluN1 herein) (GenBank: U08261.1), rat GluN2A (GenBank: D13211.1), mouse GluN2B (GenBank: D10651.2), rat GluA1 flop (GenBank: M36418.2), and rat Myc-GluA2(Q)-flip (GenBank: AF164344.1) cloned into pcDNA3-based expression plasmids. GluK2 (GenBank: Z11548.1) corresponds to the fully RNA-edited version.[80] The GluN2B-ΔNTD construct is from ref[45] and GluN2B–N615K is from ref[81]. Single mutants GluN2B-Q110G and GluN1-L135H were from ref[19]. The GluA2 cDNA contains a Myc tag ([…]) fused between the signal peptide and the N-terminus sequences, and the GluA2 subunit is […] for its Q/R/N site (GluA2(Q)) to allow permeation of homomeric GluA2 receptors.[2] cDNAs coding for rat GluN2C (GenBank: M91563.1) and GluN2D subunits (GenBank: L31611.1) were in prK5 plasmids.
# Oocytes from Xenopus laevis were used for heterologous expression of recombinant NMDA receptors studied using a two-electrode voltage clamp (TEVC). Female Xenopus laevis were housed and ovary bags harvested according to the European Union guidelines (husbandry authorizations #C75–05–31 and #D75–05–31; project authorizations #05137.02; and Apafis #28867–2020121814485893). Fragments of ovary bags were also purchased from the “Centre de Ressources Biologiques Xenopes” (now TEFOR, Paris Saclay, France) and from the European Xenopus Resource Center (EXRC, Portsmouth, UK). Xenopus laevis oocytes were harvested and prepared as previously described in ref[82].
# Expression of recombinant NMDA receptors was obtained by oocyte nuclear coinjection of 37 nL of a mixture of cDNAs (at 30 ng/μL) coding for GluN1–1a and various GluN2 subunits (ratio 1:1). The protocol in ref[43] was followed for the expression of GluN1/GluN2A/GluN2B triheteromers. The oocytes were transferred in 96-well plates filled with Barth solution (in mM: 88 NaCl, 1 KCl, 0.33 Ca(NO3)2, 0.41 CaCl2, 0.82 MgSO4, 2.4 NaHCO3, and 7.5 HEPES, pH adjusted to 7.3 with NaOH), supplemented with gentamicin ([…]) and 50 μM APV, a selective NMDA receptor antagonist. Plates were then stored at 18 °C for 24 h for GluN1/GluN2A expression and for 48––72 h for the expression of GluN1/Glu2B, GluN1/GluN2A/GluN2B, and mutants.
# TEVC recordings were performed 1–3 days following injection. TEVC recordings were performed using an Oocyte Clamp amplifier OC-725 (Warner Instruments) and computer-controlled via a 1440A Digidata (Molecular Devices). Currents were sampled at 100 Hz and low-pass-filtered at 20 Hz using an 8-pole Bessel filter (900 Series, Frequency Devices Inc.).
# [1] = 365 nm PSS, 100 µM glutamate + glycine, Xenopus oocytes, read-out: IC50 on GluN1/GluN2B receptors, preilluminated with 365 nm
# [2] = Sup. Fig. 2G, trans isomer, source: this paper, read-out: activity (Ki or IC50)
# T1 sequence (Q01097 27-1482, other chains not shown): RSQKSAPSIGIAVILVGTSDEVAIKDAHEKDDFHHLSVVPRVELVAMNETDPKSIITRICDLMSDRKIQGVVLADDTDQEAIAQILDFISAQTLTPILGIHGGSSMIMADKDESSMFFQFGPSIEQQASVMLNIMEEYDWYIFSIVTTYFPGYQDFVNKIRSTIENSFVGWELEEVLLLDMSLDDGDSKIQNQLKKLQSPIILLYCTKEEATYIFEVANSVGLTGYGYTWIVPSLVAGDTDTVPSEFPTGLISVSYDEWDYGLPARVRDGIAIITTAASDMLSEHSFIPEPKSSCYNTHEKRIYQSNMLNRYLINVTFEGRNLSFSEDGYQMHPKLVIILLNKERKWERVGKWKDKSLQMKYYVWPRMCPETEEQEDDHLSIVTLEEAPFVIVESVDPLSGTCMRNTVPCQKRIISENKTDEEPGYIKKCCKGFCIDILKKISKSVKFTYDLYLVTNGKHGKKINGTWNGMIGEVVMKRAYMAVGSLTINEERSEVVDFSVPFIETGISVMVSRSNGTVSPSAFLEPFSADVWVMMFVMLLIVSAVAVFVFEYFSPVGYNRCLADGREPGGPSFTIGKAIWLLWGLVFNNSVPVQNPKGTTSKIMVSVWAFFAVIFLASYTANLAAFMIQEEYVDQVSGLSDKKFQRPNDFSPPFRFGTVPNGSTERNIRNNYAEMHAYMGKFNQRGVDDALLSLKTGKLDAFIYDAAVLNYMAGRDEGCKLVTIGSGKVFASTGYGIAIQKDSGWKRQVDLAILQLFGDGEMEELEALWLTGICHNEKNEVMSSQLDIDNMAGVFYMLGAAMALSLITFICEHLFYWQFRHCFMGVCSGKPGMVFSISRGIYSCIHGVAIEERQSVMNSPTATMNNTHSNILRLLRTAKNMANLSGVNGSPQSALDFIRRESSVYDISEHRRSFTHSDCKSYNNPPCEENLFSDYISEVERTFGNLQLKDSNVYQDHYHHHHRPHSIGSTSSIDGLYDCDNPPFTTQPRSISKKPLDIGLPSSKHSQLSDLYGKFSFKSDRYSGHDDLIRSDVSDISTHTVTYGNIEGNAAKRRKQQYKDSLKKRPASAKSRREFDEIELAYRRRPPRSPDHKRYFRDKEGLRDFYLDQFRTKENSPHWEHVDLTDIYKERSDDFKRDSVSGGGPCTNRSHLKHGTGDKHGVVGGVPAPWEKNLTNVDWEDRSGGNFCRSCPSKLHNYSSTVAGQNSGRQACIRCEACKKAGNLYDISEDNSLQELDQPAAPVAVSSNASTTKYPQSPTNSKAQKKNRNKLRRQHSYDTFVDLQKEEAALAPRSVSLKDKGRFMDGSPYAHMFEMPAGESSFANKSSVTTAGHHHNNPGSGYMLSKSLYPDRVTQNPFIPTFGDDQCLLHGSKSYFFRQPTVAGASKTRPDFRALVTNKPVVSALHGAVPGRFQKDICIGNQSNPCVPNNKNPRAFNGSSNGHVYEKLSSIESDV
compound,measurement,setting,value
"Cc1cc(N)nc(/N=N/c2ccccc2)c1 [OptoNAM-2, (E)-4-methyl-6-(phenyldiazenyl)pyridin-2-amine]",IC50,[1],117 ± 10 µM
same,remaining activity at 1 µM,365 nm PSS,94.5%
same,remaining activity at 5 µM,365 nm PSS,92.7%
same,remaining activity at 10 µM,365 nm PSS,90%
same,remaining activity at 25 µM,365 nm PSS,84.2%
same,remaining activity at 50 µM,365 nm PSS,63.5%
same,remaining activity at 90 µM,365 nm PSS,50%
same,remaining activity at 100 µM,365 nm PSS,49.3%
same,remaining activity at 1 µM,dark PSS (trans),92.5%
same,remaining activity at 5 µM,dark PSS (trans),84.8%
same,remaining activity at 10 µM,dark PSS (trans),75.5%
same,remaining activity at 25 µM,dark PSS (trans),47.3%
same,remaining activity at 50 µM,dark PSS (trans),31.1%
same,remaining activity at 90 µM,dark PSS (trans),22.1%
same,remaining activity at 100 µM,dark PSS (trans),14.4%
same,IC50,[2],24 µM
same,UV/dark IC50 ratio (365 nm PSS vs dark),Xenopus oocytes,4.9 fold
same,shift in IC50 compared to parent compound,,> 1000 fold
"Nc1ccnc(/N=N/c2ccccc2)c1 [OptoNAM-1, (E)-2-(phenyldiazenyl)pyridin-4-amine]",IC50,[1],37 ± 2 µM
same,remaining activity at 2 µM,365 nm PSS,91.1%
same,remaining activity at 7.5 µM,365 nm PSS,81.8%
same,remaining activity at 10 µM,365 nm PSS,78%
same,remaining activity at 25 µM,365 nm PSS,58.1%
same,remaining activity at 70 µM,365 nm PSS,35%
same,remaining activity at 2 µM,dark PSS (trans),83.8%
same,remaining activity at 7.5 µM,dark PSS (trans),66.1%
same,remaining activity at 10 µM,dark PSS (trans),49.9%
same,remaining activity at 25 µM,dark PSS (trans),28.4%
same,remaining activity at 70 µM,dark PSS (trans),13.4%
same,IC50,[2],11 µM
same,UV/dark IC50 ratio (365 nm PSS vs dark),Xenopus oocytes,3.4 fold
same,shift in IC50 compared to parent compound,,> 1000 fold
"CS(=O)(=O)Nc1ccc2nc(Cc3ccc(/N=N/c4ccccc4)cc3)[nH]c2c1 [OptoNAM-4, (E)-N-(2-(4-(phenyldiazenyl)benzyl)-1H-benzo[d]imidazol-6-yl)methanesulfonamide]",IC50,"365 nm PSS, Xenopus oocytes, read-out: IC50 on GluN1/GluN2B receptors, pre-illuminated with 365 nm",0.031 ± 0.029 µM
same,remaining activity at 0.01 µM,365 nm PSS,69.6%
same,remaining activity at 0.025 µM,365 nm PSS,50.1%
same,remaining activity at 0.05 µM,365 nm PSS,44.8%
same,remaining activity at 0.1 µM,365 nm PSS,34%
same,remaining activity at 0.15 µM,365 nm PSS,21%
same,remaining activity at 0.01 µM,dark PSS (trans),68.3%
same,remaining activity at 0.025 µM,dark PSS (trans),45.6%
same,remaining activity at 0.05 µM,dark PSS (trans),39%
same,remaining activity at 0.1 µM,dark PSS (trans),29.7%
same,remaining activity at 0.15 µM,dark PSS (trans),15%
same,IC50,"dark PSS (trans), Xenopus oocytes, read-out: IC50 on GluN1/GluN2B receptors in the dark",0.024 ± 0.026 µM
same,photodependence of activity on GluN1/GluN2B NMDARs,dark vs 365 nm PSS,not photodependent; also recorded: did not display any photodependence of activity
same,UV/dark IC50 ratio (365 nm PSS vs dark),Xenopus oocytes,1.3 fold
